The text below walks through data of article PMC8274595, “Mechanism through Which Retrocyclin Targets Flavivirus Multiplication” (Journal of Virology, 2021).

The test system of one data set is JEV N154A variant. It is filed as cell-based, Japanese encephalitis virus (JEV). Conditions: coadministration, BHK-21 cells, Western blot and plaque assay.
For a further data set, the system named is ZIKV MR766. Kind of data set: Plaque assay, ZIKV MR766 virus production. It is filed as cell-based, Zika virus (ZIKV). The conditions noted are these: additional cell line U251 used, supernatant 71 h postinfection.
The next data set has as its system ZIKV PRVABC 59. Kind of data set: Plaque assay, ZIKV PRVABC 59 virus production. It is filed as cell-based, Zika virus (ZIKV). The conditions noted are these: 100 μM, additional cell line U251 used, supernatant 47 h postinfection.
Another data set relates to HIV gp120. Conditions: cited from earlier work.
Another data set relates to Vero cells. The conditions noted are these: up to 100 μM, 72 h, CCK-8 assay.
For another data set, the target named is T1, ZIKV NS2B-NS3pro (Zika virus, UniProt A0A024B7W1).
T1 construct: the NS2B fragments were amplified by PCR; made in house; host or cells: E. coli BL21(DE3), pET28a
Kind of data set: Proteolytic activity of NS2B-NS3 protease. It is filed as biochemical.

The target of another data set is T2, WT DIII (Japanese encephalitis virus, UniProt P27395).
T2 construct: The WT DIII expression vector was constructed using pET-22b(+) and preserved in our laboratory; pET-22b(+) normally gives a C-terminal His6); made in house; host or cells: E. coli BL21(DE3), pET-22b(+)
Nature of the data set: Binding affinity, biolayer interferometry, WT DIII. The arrangement: species or system Japanese encephalitis virus (JEV). The conditions noted are these: Octet QK, DIII immobilized, RC-101 200, 100, 50 nM, 1:1 binding model.

In a further data set the test system is ZIKV. Kind of data set: Time-of-addition assay, ZIKV (PRVABC 59 and MR766). It is filed as cell-based, Zika virus (ZIKV).
In another data set the test system is JEV NS3. It is filed as cell-based, Japanese encephalitis virus (JEV). Conditions: BHK-21 cells.
For the next data set, the system named is MR766 strain. Nature of the data set: Time-of-addition assay, ZIKV MR766 posttreatment. It is filed as cell-based, Zika virus (ZIKV). Conditions: Vero cells, RC-101 40 μM added 1 h postinfection for 71 h, MOI 0.1, plaque assay.
A further data set relates to JEV Q258A variant. It is filed as cell-based, Japanese encephalitis virus (JEV). Conditions: coadministration, BHK-21 cells, Western blot and plaque assay.
The test system of data set [1] is JEV AT31. Nature of the data set: Viral titer reduction (plaque) assay, JEV in BHK-21 cells. It is filed as cell-based, Japanese encephalitis virus (JEV). The conditions noted are these: MOI 0.1, six independent experiments.
The next data set has as its system JEV H144A variant. It is filed as cell-based, Japanese encephalitis virus (JEV). Conditions: coadministration, BHK-21 cells, Western blot and plaque assay.
Data set [2] relates to herpes simplex virus 1/2 (HSV-1/2) glycoprotein. The conditions noted are these: cited from earlier work.
In a further data set the test system is JEV. It is filed as cell-based, Japanese encephalitis virus (JEV). The conditions noted are these: 50 μM RC-101, coadministration, BHK-21 cells.
Data set [3] relates to influenza virus hemagglutinin. The conditions noted are these: cited from earlier work.
For data set [4], the system named is JEV AT31. Nature of the data set: Viral titer reduction (plaque) assay, JEV in U251 cells. Conditions: MOI 0.1, six independent experiments. It is filed as cell-based, Japanese encephalitis virus (JEV).
The target of a further data set is T3, DE mutant DIII (Japanese encephalitis virus, UniProt P27395, N661A/S658A/S659A/T657A).
T3 construct: DE loop mutant DIII (B), and bovine serum albumin (BSA) (C) were immobilized onto biosensors; pET-22b(+) normally gives a C-terminal His6); made in house
Kind of data set: Binding affinity, biolayer interferometry, DE mutant DIII. Further details: species or system Japanese encephalitis virus (JEV). The conditions noted are these: relative to WT DIII.

Another data set deals with ZIKV replicon. Nature of the data set: ZIKV replicon luciferase assay. Conditions: BHK-21 cells, three independent experiments. It is filed as cell-based, Zika virus (ZIKV).
The subject of a further data set is DENV-2. The conditions noted are these: cited from earlier work.
In a further data set the test system is DENV NS2B-NS3 protease. Conditions: cited from earlier work.

pIC50: −log10 of the molar value. Like-named read-outs stand apart in the source and are kept apart here. Where no end group is shown, it is not given here.

On to `CC[C@H](C)[C@@H]1NC(=O)CNC(=O)[C@H](CCCCN)NC(=O)CNC(=O)[C@@H]2CSSC[C@H](NC1=O)C(=O)N[C@@H](CCCNC(=N)N)C(=O)N[C@H]1CSSC[C@H](NC(=O)[C@H](CCCNC(=N)N)NC(=O)[C@@H]3CSSC[C@H](NC(=O)[C@H]([C@@H](C)CC)NC1=O)C(=O)NCC(=O)N[C@@H](CCCNC(=N)N)C(=O)NCC(=O)N[C@@H]([C@@H](C)CC)C(=O)N3)C(=O)N[C@@H]([C@@H](C)CC)C(=O)N2` [RC-101, retrocyclin-101], for which the “inhibition of infection by mutant virus” value in the data set on JEV N154A variant and in the data set on JEV H144A variant was “inhibited infections” in each case. Besides, the virus production reduction entry with ZIKV MR766 (12.5 μM) was “approximately 1 log unit”; in the data set on ZIKV MR766 (100 μM), “approximately 7 log units”. For the same compound, the “resistance of mutant virus to RC-101” value is “robust resistance to RC-101 in all assays” in the data set on JEV T410A variant; “resistance to RC-101 at the protein level and in the low-multiplication of infection (MOI) assay” in the data set on JEV H319A variant; “robust resistance to RC-101 in all assays” with JEV DE mutant. In the data set with ZIKV PRVABC 59, the “virus production (plaques)” value was “few plaques were found”. In addition, in the data set with HIV gp120, the “binding affinity to HIV gp120” value is reported as “high binding affinity”. The “cytotoxicity (cell viability)” value in the data set with Vero cells was “marginal response even at 100 μM”. This compound also had a pIC50 at ZIKV NS2B-NS3pro of 5.14. In addition, the “kinetic dissociation (Kd)” value at WT DIII turned out to be 0.000118 s⁻¹. Besides, in the data set with ZIKV (IC98 from dose-response against ZIKV (Fig. 1)), the “approximate IC98 against ZIKV” value is roughly 50 µM. Besides, the “suppression of viral titers, pretreatment” value with ZIKV (Vero cells, RC-101 40 μM for 1 h before infection (-1 to 0 h), ZIKV MOI 0.1, plaque assay) was “no suppression of viral titers was observed”. In addition, the “inhibitory effect, coadministration” value in the data set with ZIKV (Vero cells, RC-101 40 μM with ZIKV MOI 0.1, 0 to 1 h, plaque assay) was “significant inhibitory effects”. For the same compound, the “suppression of viral titers, virucidal treatment” value in the data set on ZIKV (ZIKV (MOI 2.5) incubated with RC-101 40 μM at 37°C for 1 h, diluted 25-fold to infect Vero cells 1 h, plaque assay) is “no suppression of viral titers was observed”. Further, the “expression of JEV NS3” value in the data set with JEV NS3 (JEV AT31 MOI 0.1, 1 h preinfection RC-101, lysates 23 h postinfection) is on record as “inhibited in a dose-dependent manner”. For the same compound, in the data set on JEV NS3 (JEV AT31 MOI 0.1, RC-101 3.125 μM versus 0.78125 μM, 23 h postinfection), the “unprocessed polyprotein precursor (>180 kDa) expression” value is recorded as “significantly higher”. The “unprocessed polyprotein precursor (>180 kDa) presence” value was “present” with JEV NS3 (JEV AT31 MOI 0.1, RC-101 0.78125 and 3.125 μM, 23 h postinfection); “decreased” in the data set on JEV NS3 (JEV AT31 MOI 0.1, RC-101 12.5 and 50 μM, 23 h postinfection). In the data set on MR766 strain, the “inhibition of infection, posttreatment” value was “inhibited MR766 strain infection”. Moreover, in the data set with JEV Q258A variant, the “sensitivity of mutant virus to RC-101” value is recorded as “likely had increased sensitivity”. Besides, the “inhibition of JEV infection (viral titer)” value in the data set with JEV AT31 [1] and in the data set with JEV AT31 [4] was “robustly inhibited JEV infection” throughout. Also, the “binding affinity to HSV-1/2 glycoprotein” value in data set [2] is reported as “high binding affinity”. The “prM band (Western blot)” value in the data set on JEV (MOI 0.1, 24 h postinfection) is on record as “hardly detectable”. Also, the viral titers decrease entry in the data set on JEV (plaque assay) is listed as “approximately 3 log units”. In [3], the “binding affinity to influenza virus hemagglutinin” value is reported as “high binding affinity”. Besides, the “decrease of binding affinity, DE mutant versus WT DIII” value at DE mutant DIII was 1 order of magnitude. The “initial translation of replicon RNA (luciferase activity)” value with ZIKV replicon (2 h postelectroporation) was “little effect”. For the same compound, the “luciferase signal (replication)” value in the data set with ZIKV replicon (48 h postelectroporation) is given as “appreciable reduction”.

For “GICRCICGRGICRCICGR (also: bicyclic or more (positions not given here)) [RC-1]”, the “inhibition of DENV-2 replication” value in the data set with DENV-2 is “inhibit DENV-2 replication”. The “inhibition of DENV NS2B-NS3 protease” value in the data set with DENV NS2B-NS3 protease is on record as “reported to inhibit DENV NS2B-NS3 protease”.
